According to publication PMC11596972, “Synthesis and Antimicrobial Activity of 3-Alkylidene-2-Indolone Derivatives” (Molecules, 2024):
≈ marks a conversion by molar mass, not a printed value. Like-named read-outs stand apart in the source and are kept apart here.

Legend:
E. coli 1924 = assay: MIC, double dilution method, E. coli 1924; format: cell-based, Escherichia coli
[1] = tested on: Staphylococcus aureus ATCC 43300; assay: Minimum bactericidal concentration, S. aureus ATCC 43300; format: cell-based; settings: ATCC43300
Description: Moreover, minimum bactericidal concentration (MBC (μg/mL)) or minimum fungicidal concentration (MFC (μg/mL)) assays were performed for the promising compounds 10d, 10f, 10g and 10h against Staphylococcus aureus ATCC 6538, Staphylococcus aureus 4220, Staphylococcus aureus ATCC 43300 and Candida albicans CMCC 98001, and shown in Table 2.
The minimum bactericidal concentration (MBC) or minimum fungicidal concentration (MFC) was determined as described, following the MIC assay, by subculturing 5 μL of the compounds from wells showing no visible growth onto fresh agar plates. The plates were incubated at 37 °C for 24 h.

MRSA ATCC 43300 = assay: MIC, double dilution method, MRSA ATCC 43300; format: cell-based, Methicillin-resistant Staphylococcus aureus; settings: Staphylococcus aureus, 24 h, MRSA ATCC 43300, Gram-positive, 24 h culture
[2] = Cytotoxicity, MTT assay, HepG2; format: cell-based; settings: human, HepG2 cells, 48 h incubation
Description: (§1) The cytotoxicity of the most bioactive compounds 10f, 10g and 10h were evaluated in vitro against the HepG2 cell line (human hepatocellular carcinoma cell line) and the L-02 cell line (normal liver cell line) by 3-(4,5-dimethylthiazol-2-yl)-2,5-diphenyltetrazolium bromide (MTT) assay. The obtained results were presented by the inhibitory concentration that reduces the viability of the cell population to 50% of the maximal viability (IC50).
(§2) HepG2 cells and L-02 cells (ATCC, Manassas, VA, USA) were plated in 96-well plates at a density of 30–40% to ensure exponential growth throughout the experimental period, and then allowed to adhere for 1 day. Next, the cells were treated with eight concentrations (100, 50, 25, 10, 5, 1, 0.1, and 0.01 μmol/L) of each compound. After 48 h of incubation, MTT solution was added to each well at a final concentration of 2 mg/mL and incubated for an additional 4 h. Next, the MTT solution was removed and […] of dimethyl sulphoxide (DMSO)/well was added (Sigma-Aldrich, St. Louis, MO, USA). The plates were shaken vigorously at RT to ensure complete solubilization, and absorption at 492 nm was determined by a microplate reader (BioTek Instruments, Inc., Winooski, VT, USA). At least three independent experiments were conducted.

[3] = Cytotoxicity, MTT assay, L-02; format: cell-based; settings: human, L-02 cells (normal liver cell line), 48 h incubation
Description: as §1, §2

E. coli ATCC 25922 = assay: MIC, double dilution method, E. coli ATCC 25922; format: cell-based; settings: Escherichia coli
C. albicans CMCC 98001 = assay: MIC, double dilution method, C. albicans CMCC 98001; format: cell-based, Candida albicans; settings: Candida albicans, CMCC98001, 24 h, C. albicans CMCC 98001, fungus, 24 h culture
P. aeruginosa CMCC 10211 = assay: MIC, double dilution method, P. aeruginosa CMCC 10211; format: cell-based; settings: Pseudomonas aeruginosa
S. aureus ATCC 6538 = assay: MIC, double dilution method, S. aureus ATCC 6538; format: cell-based; settings: Staphylococcus aureus, ATCC6538, 24 h
S. aureus 4220 = assay: MIC, double dilution method, S. aureus 4220; format: cell-based; settings: Staphylococcus aureus, 4220, 24 h
Staphylococcus aureus = tested on: Staphylococcus aureus; design: method as in PMID 28946655; settings: cited from earlier work
[4] = tested on: three Gram-positive bacteria strains and two Gram-negative bacteria strains; design: method as in PMID 29968851; settings: cited from earlier work
[5] = tested on: four bacteria and three fungi; design: method as in doi:10.1007/s11164-013-1403-x; settings: cited from earlier work
E. coli ATCC 25,922 = tested on: E. coli ATCC 25,922; design: method as in PMID 33839249; settings: cited from earlier work
[6] = tested on: Gram-positive and Gram-negative bacterial strains; design: method as in PMID 27318539; settings: most of the tested Gram-positive and Gram-negative bacterial strains; cited from earlier work
[7] = Escherichia coli, E. coli 1924, Gram-negative, 24 h culture, read-out: MIC
[8] = ATCC25922, E. coli ATCC 25922, Gram-negative, 24 h culture, read-out: MIC
[9] = CMCC10211, P. aeruginosa CMCC 10211, Gram-negative, 24 h culture, read-out: MIC
[10] = S. aureus ATCC 6538, Gram-positive, 24 h culture, read-out: MIC
[11] = S. aureus 4220, Gram-positive, 24 h culture, read-out: MIC

CCCN1C(=O)/C(=C(\O)c2ccc(Cl)cc2)c2ccccc21 [Compound 10h, (Z)-3-((4-chlorophenyl)(hydroxy)methylene)-1-propylindolin-2-one]
MIC (E. coli 1924; Escherichia coli, 1924, 24 h): 1 µg/mL (≈ 3.19 µM)
MBC [1]: 32 µg/mL (≈ 102 µM)
MIC (MRSA ATCC 43300): 0.5 µg/mL (≈ 1.59 µM)
IC50 at 48 h [2]: 41.6 µM
IC50 at 48 h [3]: 53.5 µM
MIC (E. coli ATCC 25922; ATCC25922, 24 h): 16 µg/mL (≈ 51 µM)
MIC (C. albicans CMCC 98001): 64 µg/mL (≈ 204 µM)
MIC (P. aeruginosa CMCC 10211; CMCC10211, 24 h): 16 µg/mL (≈ 51 µM)
MIC (S. aureus ATCC 6538): 0.5 µg/mL (≈ 1.59 µM)
MIC (S. aureus 4220): 1 µg/mL (≈ 3.19 µM)

CN1C(=O)/C(=C(\O)c2ccc(Br)cc2)c2ccccc21 [Compound 10i, (Z)-3-((4-bromophenyl)(hydroxy)methylene)-1-methylindolin-2-one]
MIC (E. coli 1924; Escherichia coli, 1924, 24 h): 8 µg/mL (≈ 24.2 µM)
MIC (MRSA ATCC 43300): 16 µg/mL (≈ 48.5 µM)
MIC (E. coli ATCC 25922; ATCC25922, 24 h): > 64 µg/mL
MIC (C. albicans CMCC 98001): > 64 µg/mL
MIC (P. aeruginosa CMCC 10211; CMCC10211, 24 h): > 64 µg/mL
MIC (S. aureus ATCC 6538): 2 µg/mL (≈ 6.06 µM)
MIC (S. aureus 4220): 16 µg/mL (≈ 48.5 µM)

O=C1NC(c2c[nH]c3ccc(O)cc23)=C/C1=C1\C(=O)Nc2ccccc21 [Compound VI, violacein]
MIC (Staphylococcus aureus): 6.25 µM (≈ 2.15 µg/mL)

Cn1c([N+](=O)[O-])cnc1/C=C1/C(=O)Nc2ccc([N+](=O)[O-])cc21 [Compound XI]
MIC [4]: 0.0625 to 4 µg/mL

O=C1Nc2ccccc2/C1=C\C(=O)c1cc(Cl)c(Cl)cc1O [Compound X]
MIC [5]: 12 to 18 µg/mL

OC(Cn1cncn1)(Cn1cncn1)c1ccc(F)cc1F [Flu, Fluconazole, reference compound]
MIC (E. coli 1924; [7]): > 64 µg/mL
MIC (MRSA ATCC 43300; read-out: MIC): > 64 µg/mL
MIC (E. coli ATCC 25922; [8]): > 64 µg/mL
MIC (C. albicans CMCC 98001; read-out: MIC): 2 µg/mL (≈ 6.53 µM)
MIC (P. aeruginosa CMCC 10211; [9]): > 64 µg/mL
MIC (S. aureus ATCC 6538; [10]): > 64 µg/mL
MIC (S. aureus 4220; [11]): > 64 µg/mL

COc1c(N2CCNC(C)C2)c(F)cc2c(=O)c(C(=O)O)cn(C3CC3)c12 (stereo not drawn) [Gati, Gatifloxacin, reference compound]
MIC (E. coli 1924; [7]): 0.5 µg/mL (≈ 1.33 µM)
MIC (MRSA ATCC 43300; read-out: MIC): 0.5 µg/mL (≈ 1.33 µM)
MIC (E. coli ATCC 25922; [8]): 0.5 µg/mL (≈ 1.33 µM)
MIC (C. albicans CMCC 98001; read-out: MIC): > 64 µg/mL
MIC (P. aeruginosa CMCC 10211; [9]): 0.5 µg/mL (≈ 1.33 µM)
MIC (S. aureus ATCC 6538; [10]): 0.5 µg/mL (≈ 1.33 µM)
MIC (S. aureus 4220; [11]): 0.5 µg/mL (≈ 1.33 µM)

CCC(=O)/C=C1/C(=O)N(CCn2cncn2)c2ccccc21 [IX]
MIC (E. coli ATCC 25,922): 1 µg/mL (≈ 3.37 µM)

CN(C)c1cccc2cc(S(=O)(=O)N3CCN(c4ccc(/C=C5\C(=O)Nc6ccccc65)cc4)CC3)ccc12 [VII]
MIC [6]: 12.5 to 50 µg/mL
